Results reported in patent US20100227859A1, “TRICYCLIC COMPOUNDS AS MATRIX METALLOPROTEINASE INHIBITORS” (priority 2007, published 2010).

Target: purified human MMP-12 enzyme (Homo sapiens, UniProt P39900)
Test: MMP-12 FRET assay
Format: biochemical
Conditions: substrate 20 μM, room temperature
In short: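 Enzyme pre-incubated 30 min at room temperature with compound in 50 mM HEPES pH 7.4, 100 mM NaCl, 5 mM CaCl2, 0.005% Brij-35, 10% DMSO final. Reaction started with 20 μM MCA-Pro-Leu-Gly-Leu-Dpa(DNP)-Ala-Arg, and initial cleavage rate read over 30 min (λex 325, λem 395 nm). IC50 from slope-factor inhibition fit.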

Sequence of purified human MMP-12 enzyme (P39900 106-470): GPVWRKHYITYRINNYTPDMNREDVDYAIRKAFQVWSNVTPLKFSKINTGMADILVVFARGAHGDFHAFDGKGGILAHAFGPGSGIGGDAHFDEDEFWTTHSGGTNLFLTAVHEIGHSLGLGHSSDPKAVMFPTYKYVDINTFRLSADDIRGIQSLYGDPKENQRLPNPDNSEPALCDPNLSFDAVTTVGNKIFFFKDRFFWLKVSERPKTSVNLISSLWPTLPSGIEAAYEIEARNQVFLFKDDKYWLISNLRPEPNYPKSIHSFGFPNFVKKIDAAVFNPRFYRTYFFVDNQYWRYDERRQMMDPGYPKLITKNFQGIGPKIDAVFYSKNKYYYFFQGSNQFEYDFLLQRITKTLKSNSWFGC

IC50	Compound
110 nM	CC(C)[C@@H](NS(=O)(=O)c1ccc2sc3cc(-c4ccc(Cl)o4)ccc3c2c1)C(=O)O [Compound 288, (R)-2-(7-(5-chlorofuran-2-yl)dibenzo[b,d]thiophene-2-sulfonamido)-3-methylbutanoic acid]
9.1 nM	CC(C)[C@@H](NS(=O)(=O)c1ccc2oc3cc(-c4ccc(-c5ccccc5)s4)ccc3c2c1)C(=O)O [Compound 289, (R)-3-methyl-2-(7-(5-phenylthiophen-2-yl)dibenzo[b,d]furan-2-sulfonamido)butanoic acid]
4.4 nM	CC(C)[C@@H](NS(=O)(=O)c1ccc2oc3cc(-c4ccc(Cl)o4)ccc3c2c1)C(=O)O [Compound 290, (R)-2-(7-(5-chlorofuran-2-yl)dibenzo[b,d]furan-2-sulfonamido)-3-methylbutanoic acid]
5.2 nM	CC(C)[C@@H](NS(=O)(=O)c1ccc2oc3cc(-c4nccs4)ccc3c2c1)C(=O)O [Compound 291, (R)-3-methyl-2-(7-(thiazol-2-yl)dibenzo[b,d]furan-2-sulfonamido)butanoic acid]
43 nM	Cc1nnc(-c2ccc3c(c2)oc2ccc(S(=O)(=O)N[C@@H](C(=O)O)C(C)C)cc23)s1 [Compound 292, (R)-3-methyl-2-(7-(5-methyl-1,3,4-thiadiazol-2-yl)dibenzo[b,d]furan-2-sulfonamido)butanoic acid]
21 nM	CC(C)[C@@H](NS(=O)(=O)c1ccc2oc3cc(-c4nc5ccccc5s4)ccc3c2c1)C(=O)O [Compound 293, (R)-2-(7-(benzo[d]thiazol-2-yl)dibenzo[b,d]furan-2-sulfonamido)-3-methylbutanoic acid]
9.5 nM	CC(C)[C@@H](NS(=O)(=O)c1ccc2oc3cc(-c4nc5ccccc5o4)ccc3c2c1)C(=O)O [Compound 294, (R)-2-(7-(benzo[d]oxazol-2-yl)dibenzo[b,d]furan-2-sulfonamido)-3-methylbutanoic acid]
15 nM	CC(C)[C@@H](NS(=O)(=O)c1ccc2oc3cc(-c4nc(C(F)(F)F)c(Cl)s4)ccc3c2c1)C(=O)O [Compound 295, (R)-2-(7-(5-chloro-4-(trifluoromethyl)thiazol-2-yl)dibenzo[b,d]furan-2-sulfonamido)-3-methylbutanoic acid]
3.1 nM	COc1ccc2nc(-c3ccc4c(c3)oc3ccc(S(=O)(=O)N[C@@H](C(=O)O)C(C)C)cc34)sc2c1 [Compound 296, (R)-2-(7-(6-methoxybenzo[d]thiazol-2-yl)dibenzo[b,d]furan-2-sulfonamido)-3-methylbutanoic acid]
2.2 nM	CC(C)[C@@H](NS(=O)(=O)c1ccc2oc3cc(-c4nc5ccc(F)cc5s4)ccc3c2c1)C(=O)O [Compound 297, (R)-2-(7-(6-fluorobenzo[d]thiazol-2-yl)dibenzo[b,d]furan-2-sulfonamido)-3-methylbutanoic acid]
7.4 nM	Cc1ccc2nc(-c3ccc4c(c3)oc3ccc(S(=O)(=O)N[C@@H](C(=O)O)C(C)C)cc34)sc2c1 [Compound 298, (R)-3-methyl-2-(7-(6-methylbenzo[d]thiazol-2-yl)dibenzo[b,d]furan-2-sulfonamido)butanoic acid]
15 nM	CC(C)[C@@H](NS(=O)(=O)c1ccc2oc3cc(-c4nc5c(F)cccc5s4)ccc3c2c1)C(=O)O [Compound 299, (R)-2-(7-(4-fluorobenzo[d]thiazol-2-yl)dibenzo[b,d]furan-2-sulfonamido)-3-methylbutanoic acid]
51 nM	CC(C)[C@@H](NS(=O)(=O)c1ccc2oc3cc(-c4nc5c(F)c(F)c(F)cc5s4)ccc3c2c1)C(=O)O [Compound 300, (R)-3-methyl-2-(7-(4,5,6-trifluorobenzo[d]thiazol-2-yl)dibenzo[b,d]furan-2-sulfonamido)butanoic acid]
78 nM	CC(C)[C@@H](NS(=O)(=O)c1ccc2oc3cc(-c4nc5ccc(OC(F)(F)F)cc5s4)ccc3c2c1)C(=O)O [Compound 301, (R)-3-methyl-2-(7-(6-(trifluoromethoxy)benzo[d]thiazol-2-yl)dibenzo[b,d]furan-2-sulfonamido)butanoic acid]
28 nM	CC(C)[C@@H](NS(=O)(=O)c1ccc2oc3cc(-c4nc5ccc(C(F)(F)F)cc5s4)ccc3c2c1)C(=O)O [Compound 302, (R)-3-methyl-2-(7-(6-(trifluoromethyl)benzo[d]thiazol-2-yl)dibenzo[b,d]furan-2-sulfonamido)butanoic acid]
< 1.5 nM	C#Cc1ccc2oc3cc(S(=O)(=O)N[C@H](C(=O)O)C(C)C)ccc3c2c1 [Compound 303, (S)-2-(8-ethynyldibenzo[b,d]furan-3-sulfonamido)-3-methylbutanoic acid]
1.5 nM	CC(C)[C@H](NS(=O)(=O)c1ccc2c(c1)sc1cc(-c3ccc(Cl)s3)ccc12)C(=O)O [Compound 304, (S)-2-(7-(5-chlorothiophen-2-yl)dibenzo[b,d]thiophene-3-sulfonamido)-3-methylbutanoic acid]
1.6 nM	Cc1nc(-c2ccc3oc4cc(S(=O)(=O)N[C@H](C(=O)O)C(C)C)ccc4c3c2)sc1C [Compound 305, (S)-2-(8-(4,5-dimethylthiazol-2-yl)dibenzo[b,d]furan-3-sulfonamido)-3-methylbutanoic acid]
< 1.5 nM	CC(C)[C@H](NS(=O)(=O)c1ccc2c(c1)oc1ccc(-c3nc4c(s3)CCCC4)cc12)C(=O)O [Compound 307, (S)-3-methyl-2-(8-(4,5,6,7-tetrahydrobenzo[d]thiazol-2-yl)dibenzo[b,d]furan-3-sulfonamido)butanoic acid]
< 1.5 nM	CC(C)[C@H](NS(=O)(=O)c1ccc2c(c1)oc1ccc(-c3ccc4c(c3)OCO4)cc12)C(=O)O [Compound 308, (S)-2-(8-(benzo[d][1,3]dioxol-5-yl)dibenzo[b,d]furan-3-sulfonamido)-3-methylbutanoic acid]
< 1.5 nM	CC(C)[C@H](NS(=O)(=O)c1ccc2c(c1)oc1ccc(-c3ccccc3)cc12)C(=O)O [Compound 309, (S)-3-methyl-2-(8-phenyldibenzo[b,d]furan-3-sulfonamido)butanoic acid]
< 1.5 nM	COc1ccc(-c2ccc3oc4cc(S(=O)(=O)N[C@H](C(=O)O)C(C)C)ccc4c3c2)cc1 [Compound 310, (S)-2-(8-(4-methoxyphenyl)dibenzo[b,d]furan-3-sulfonamido)-3-methylbutanoic acid]
2 nM	CC(C)[C@H](NS(=O)(=O)c1ccc2c(c1)oc1ccc(-c3ccc(C(F)(F)F)cc3)cc12)C(=O)O [Compound 311, (S)-3-methyl-2-(8-(4-(trifluoromethyl)phenyl)dibenzo[b,d]furan-3-sulfonamido)butanoic acid]
< 1.5 nM	CC(C)[C@H](NS(=O)(=O)c1ccc2c(c1)sc1cc(-c3ccccc3)ccc12)C(=O)O [Compound 313, (S)-3-methyl-2-(7-phenyldibenzo[b,d]thiophene-3-sulfonamido)butanoic acid]
2.6 nM	CC(C)[C@@H](NS(=O)(=O)c1ccc2c(c1)sc1cc(-c3ccccc3)ccc12)C(=O)O [Compound 314, (R)-3-methyl-2-(7-phenyldibenzo[b,d]thiophene-3-sulfonamido)butanoic acid]
3.8 nM	(R)-2-(7-(5-ethyl-1,2,4-oxadiazol-3-yl)dibenzo[b,d]furan-2-sulfonamido)-3-methylbutanoic acid [Compound 140]
13 nM	(S)-3-methyl-2-(8-(5-((methylamino)methyl)furan-2-yl)dibenzo[b,d]furan-3-sulfonamido)butanoic acid [Compound 68]
